The term IC50 denotes the concentration needed to halve the response being measured. As usually defined, the viability, T/C is the ratio of treated to control.

In PubChem BioAssay AID2060899 (Molecular Pharmacology Branch, DTP, NCI, 2025) one finds IC50 and viability, T/C data, which are given here for four molecules.

The test deals with 565726-208-R1-J5-PDC complex spheroids, growth inhibition. In words: Anticancer human tumor 565726-208-R1-J5-PDC patient-derived pancreatic adenocarcinoma cell line growth inhibition [RAS]. The note with it: for viability, T/C: stronger effect = lower value. The method in brief: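 Multi-cell-type spheroids: tumor cells plus HUVEC endothelial cells and mesenchymal stem cells. RAS-pathway inhibitors were combined with targeted agents, each dosed in half-log steps down from clinical Cmax, or from 10 microM when Cmax was unknown.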

Several values for one entry are separate records, joined by “and”; a condition that tells them apart may be missing. Equal entries are not always repeated. Bounds are passed on as bounds.
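Also: spheroids exposed to compounds for seven days before readout.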
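For viability, T/C in this document: 100% = DMSO vehicle control viability.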

With `C[C@@H](NC(=O)c1ncnc(N)c1Cl)c1ncc(C(=O)Nc2cc(C(F)(F)F)c(Cl)cn2)s1` + CCn1c(-c2cccnc2C(C)OC)c2c3cc(ccc31)N1CCOC(CC(NC(=O)C(C(C)C)N(C)C(=O)C3(F)CCN(C(=O)C#CC(C)(C)N(C)C)CC3)C(=O)N3CCCC(N3)C(=O)OCC(C)(C)C2)C1, the IC50 reads like this: (curve of first compound, second compound 0.000949 µM) more than 10 µM; (curve of first compound, second compound 0.003 µM) more than 10 µM; (curve of first compound, second compound 0.00949 µM) more than 10 µM; (curve of first compound, second compound 0.03 µM) more than 10 µM; (curve of first compound, second compound 0.0949 µM) more than 10 µM; (curve of first compound, second compound 0.3 µM) more than 10 µM. The viability, T/C (second compound 0.000949 µM, first compound 0.0316 µM) was 111%; the viability, T/C (second compound 0.000949 µM, first compound 0.1 µM) was 109%; the viability, T/C (second compound 0.000949 µM, first compound 0.316 µM) is 113%; the viability, T/C (second compound 0.000949 µM, first compound 1 µM) was 103%; the viability, T/C (second compound 0.000949 µM, first compound 3.16 µM) is 98.1%; the viability, T/C (second compound 0.000949 µM, first compound 10 µM) is 83.3%. Moreover, the viability, T/C is, setting by setting: (second compound 0.003 µM, first compound 0.0316 µM) 118%; (second compound 0.003 µM, first compound 0.1 µM) 111%; (second compound 0.003 µM, first compound 0.316 µM) 107%; (second compound 0.003 µM, first compound 1 µM) 109%; (second compound 0.003 µM, first compound 3.16 µM) 98%; (second compound 0.003 µM, first compound 10 µM) 79.8%. In addition, the viability, T/C reads like this: (second compound 0.00949 µM, first compound 0.0316 µM) 108%; (second compound 0.00949 µM, first compound 0.1 µM) 107%; (second compound 0.00949 µM, first compound 0.316 µM) 104%; (second compound 0.00949 µM, first compound 1 µM) 114%; (second compound 0.00949 µM, first compound 3.16 µM) 105%; (second compound 0.00949 µM, first compound 10 µM) 82.2%. In addition, the viability, T/C is, setting by setting: (second compound 0.03 µM, first compound 0.0316 µM) 102%; (second compound 0.03 µM, first compound 0.1 µM) 110%; (second compound 0.03 µM, first compound 0.316 µM) 112%; (second compound 0.03 µM, first compound 1 µM) 112%; (second compound 0.03 µM, first compound 3.16 µM) 105%; (second compound 0.03 µM, first compound 10 µM) 80.9%. In addition, the viability, T/C by setting is: (second compound 0.0949 µM, first compound 0.0316 µM) 108%; (second compound 0.0949 µM, first compound 0.1 µM) 101%; (second compound 0.0949 µM, first compound 0.316 µM) 99.7%; (second compound 0.0949 µM, first compound 1 µM) 108%; (second compound 0.0949 µM, first compound 3.16 µM) 90.1%; (second compound 0.0949 µM, first compound 10 µM) 90.6%. Besides, the viability, T/C (second compound 0.3 µM, first compound 0.0316 µM) is 91.3%; the viability, T/C (second compound 0.3 µM, first compound 0.1 µM) is 98.7%; the viability, T/C (second compound 0.3 µM, first compound 0.316 µM) is 95%; the viability, T/C (second compound 0.3 µM, first compound 1 µM) was 107%; the viability, T/C (second compound 0.3 µM, first compound 3.16 µM) is 90%; the viability, T/C (second compound 0.3 µM, first compound 10 µM) is 77.5%.

With `CC(Nc1ccc2c(c1)OCCn1cc(N3C(=O)OCC3C(F)F)nc1-2)C(N)=O` (configuration not stated), the viability, T/C runs as follows: (compound 0.0316 µM) 94.9% [middle of 4 runs]; (compound 0.316 µM) 79.3% [middle of 4 runs]; (compound 1 µM) 72% [middle of 4 runs]. For the same molecule, for the setting “curve of compound”, the concentration for half-maximal inhibition (IC50) is > 10 µM and 9.95 µM.

Consider `CC(C)NCC(C(=O)N1CCN(c2ncnc3c2C(C)CC3O)CC1)c1ccc(Cl)cc1` (configuration not stated), for which the viability, T/C reads like this: (compound 0.0316 µM) 97.9% [middle of 4 runs]; (compound 0.1 µM) 100% [middle of 4 runs]; (compound 1 µM) 88.7% [middle of 4 runs]. Also, the IC50 (curve of compound) is more than 10 µM.

Take `CC(=O)OC12COC1CC(O)C1(C)C(=O)C(O)C3=C(C)C(OC(=O)C(O)C(NC(=O)OC(C)(C)C)c4ccccc4)CC(O)(C(OC(=O)c4ccccc4)C21)C3(C)C` (configuration not stated) + C=CC(=O)N1CCN(c2nc(OCC3CCCN3C)nc3c(F)c(-c4nc(N)cc(C)c4C(F)(F)F)c(Cl)cc23)C(C)C1: the IC50 runs as follows: (curve of first compound, second compound 0.00316 µM) less than 0.0316 µM; (curve of first compound, second compound 0.01 µM) less than 0.0316 µM; (curve of first compound, second compound 0.0316 µM) less than 0.0316 µM; (curve of first compound, second compound 0.1 µM) less than 0.0316 µM; (curve of first compound, second compound 0.316 µM) less than 0.0316 µM; (curve of first compound, second compound 1 µM) less than 0.0316 µM. The viability, T/C runs as follows: (second compound 0.00316 µM, first compound 0.0316 µM) 22.4%; (second compound 0.00316 µM, first compound 0.1 µM) 20.6%; (second compound 0.00316 µM, first compound 0.316 µM) 22.6%; (second compound 0.00316 µM, first compound 1 µM) 19.4%; (second compound 0.00316 µM, first compound 3.16 µM) 30%; (second compound 0.00316 µM, first compound 10 µM) 37.1%. For the same molecule, the viability, T/C is 25% (second compound 0.01 µM, first compound 0.0316 µM); 21.8% (second compound 0.01 µM, first compound 0.1 µM); 21.1% (second compound 0.01 µM, first compound 0.316 µM); 23.5% (second compound 0.01 µM, first compound 1 µM); 32.6% (second compound 0.01 µM, first compound 3.16 µM); 47.7% (second compound 0.01 µM, first compound 10 µM). Further, the viability, T/C is, setting by setting: (second compound 0.0316 µM, first compound 0.0316 µM) 31.6%; (second compound 0.0316 µM, first compound 0.1 µM) 26.6%; (second compound 0.0316 µM, first compound 0.316 µM) 24.9%; (second compound 0.0316 µM, first compound 1 µM) 21%; (second compound 0.0316 µM, first compound 3.16 µM) 29.5%; (second compound 0.0316 µM, first compound 10 µM) 44.8%. Further, the viability, T/C was 26% (second compound 0.1 µM, first compound 0.0316 µM); 23% (second compound 0.1 µM, first compound 0.1 µM); 26% (second compound 0.1 µM, first compound 0.316 µM); 19% (second compound 0.1 µM, first compound 1 µM); 27.7% (second compound 0.1 µM, first compound 3.16 µM); 42.8% (second compound 0.1 µM, first compound 10 µM). Moreover, the viability, T/C is, setting by setting: (second compound 0.316 µM, first compound 0.0316 µM) 21.1%; (second compound 0.316 µM, first compound 0.1 µM) 26.6%; (second compound 0.316 µM, first compound 0.316 µM) 22.4%; (second compound 0.316 µM, first compound 1 µM) 24.9%; (second compound 0.316 µM, first compound 3.16 µM) 28%; (second compound 0.316 µM, first compound 10 µM) 45.9%. Also, the viability, T/C reads like this: (second compound 1 µM, first compound 0.0316 µM) 34.8%; (second compound 1 µM, first compound 0.1 µM) 24.1%; (second compound 1 µM, first compound 0.316 µM) 22.1%; (second compound 1 µM, first compound 1 µM) 26.4%; (second compound 1 µM, first compound 3.16 µM) 34.4%; (second compound 1 µM, first compound 10 µM) 50.1%.
